Our source for the IC50 values is US20230339937A1, “CONDENSED RING COMPOUNDS THAT INHIBIT H-PGDS” (SATO PHARMACEUTICAL CO., LTD., priority 2020, published 2023).

Structures are written as SMILES.

The assay deals with T1, Recombinant human H-PGDS (Homo sapiens, UniProt O60760).
T1 construct: made in house; host or cells: E. coli
In words: H-PGDS inhibitory activity (prostaglandin D2 production from prostaglandin H2, measured by LC-MS/MS). The format is biochemical. The conditions noted are these: recombinant human H-PGDS 1.0 nM expressed in E. coli; prostaglandin H2 25 μM; preincubated 15 minutes on ice, reacted on ice for 1 minute; concentration that inhibits prostaglandin D2 production by 50%. The procedure: The H-PGDS inhibitory activity of each Example compound was measured according to the method reported by LIN, Jiang. et al. (NO 2007/041634).
Recombinant human H-PGDS (final concentration: 1.0 nM) expressed in E. coli was mixed in an assay buffer containing 20 mM Tris-HCl (pH 8.0), 2 mM magnesium chloride, 2 mM reduced glutathione, and 0.5 mg/mL γ-globulin, and 150 μL of the mixture was dispensed into a 8-strip PCR tube (BM Equipment Co., Ltd.). Test compounds (Example compounds) (16.5 μL) at various concentrations dissolved in DMSO were added and the mixture was preincubated for 15 minutes on ice.
Prostaglandin H2 (final concentration: 25 μM) (Cayman Chemical) was dispensed into another 8-strip PCR tube, and the solvent was dried and solidified using a vacuum concentrator (Thermo Fisher Scientific). To the dried and solidified prostaglandin H2 was added 50 μL of the assay buffer containing H-PGDS and each test compound after the preincubation, and the mixture was reacted on ice for 1 minute. 45 μL of this mixture was added to 45 μL of a stop solution (50 mM aqueous citric acid solution containing iron chloride at a final concentration of 4 mg/mL) to stop the reaction. Then, the reaction solution was deproteinized, added to a 96 square deep well plate (SHONANMARUHACHI STEC Co., Ltd.), and the prostaglandin D2 concentration in the reaction solution was measured by LC-MS/MS. ACQUITY (registered trademark) TQD (Waters) was used as a measuring instrument.
Prostaglandin Da production activity (f) in the group with each test compound when a value obtained by subtracting the amount of production of prostaglandin D2 in the group without enzyme, which is non-specific production of prostaglandin D2, from the amount of production of prostaglandin Da in the group without test compound (DMSO-addition group) in each 8-strip PCR tube is 100% was calculated.

T1 sequence (O60760 whole entry): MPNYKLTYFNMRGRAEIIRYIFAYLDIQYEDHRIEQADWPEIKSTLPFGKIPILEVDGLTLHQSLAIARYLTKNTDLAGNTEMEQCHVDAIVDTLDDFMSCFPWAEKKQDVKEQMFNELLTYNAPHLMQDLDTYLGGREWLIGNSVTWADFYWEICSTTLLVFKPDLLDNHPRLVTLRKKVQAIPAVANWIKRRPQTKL

For `O=C(N[C@@H]1CCC[C@H](O)C1)c1ccc(-c2nccc3occc23)cc1` (relative stereo) [Example 265, 4-(furo[3,2-c]pyridin-4-yl)-N-(cis-3-hydroxycyclohexyl)benzamide], the IC50 amounted to 4.8 nM.
With `O=C(N[C@@H]1CCC[C@@H](O)C1)c1ccc(-c2nccc3occc23)cc1` (relative stereo) [Example 266, 4-(furo[3,2-c]pyridin-4-yl)-N-(trans-3-hydroxycyclohexyl)benzamide] the figure was 3.8 nM; with `O=C(N[C@@H]1CC[C@H](O)C1)c1ccc(-c2nccc3occc23)cc1` (relative stereo) [Example 267, 4-(furo[3,2-c]pyridin-4-yl)-N-(cis-3-hydroxycyclopenthyl)benzamide], 3.1 nM.
As for `O=C(N[C@@H]1CC[C@@H](O)C1)c1ccc(-c2nccc3occc23)cc1` (relative stereo) [Example 268, 4-(furo[3,2-c]pyridin-4-yl)-N-(trans-3-hydroxycyclopenthyl)benzamide], the 50% inhibitory concentration (IC50) came out at 6.4 nM.
With `O=C(N[C@H]1CCCC[C@H]1O)c1ccc(-c2nccc3occc23)cc1` (relative stereo) [Example 273, 4-(furo[3,2-c]pyridin-4-yl)-N-(cis-2-hydroxycyclohexyl)benzamide] the figure was 2.8 nM.
With `O=C(N[C@H]1CCCC[C@@H]1O)c1ccc(-c2nccc3occc23)cc1` (relative stereo) [Example 274, 4-(furo[3,2-c]pyridin-4-yl)-N-(trans-2-hydroxycyclohexyl)benzamide] the figure was 13 nM; with `CO[C@H]1CCC[C@@H](NC(=O)c2ccc(-c3nccc4occc34)cc2)C1` (relative stereo) [Example 275, 4-(furo[3,2-c]pyridin-4-yl)-N-(cis-3-methoxycyclohexyl)benzamide], 1.8 nM; with `O=C(N[C@@H]1CCC[C@H](O)CC1)c1ccc(-c2nccc3occc23)cc1` (relative stereo) [Example 293, 4-(furo[3,2-c]pyridin-4-yl)-N-(cis-4-hydroxycycloheptyl)benzamide], 1.6 nM.
For `CNC(=O)c1ccc(-c2nccc3[nH]ccc23)cc1` [Example 1, N-methyl-4-(1H-pyrrolo[3,2-c]pyridin-4-yl)benzamide] the value was 2.7 nM; for `CC(C)(O)[C@H]1CC[C@H](NC(=O)c2ccc(-c3nccc4[nH]ccc34)cc2)CC1` [Example 2, N-[trans-4-(2-hydroxypropan-2-yl)cyclohexyl]-4-(1H-pyrrolo[3,2-c]pyridin-4-yl)benzamide], 0.75 nM.
Turning to `O=C(N[C@H]1CC[C@H](CO)CC1)c1ccc(-c2nccc3[nH]ccc23)cc1` [Example 3, N-[trans-4-(hydroxymethyl)cyclohexyl]-4-(1H-pyrrolo[3,2-c]pyridin-4-yl)benzamide], the IC50 turned out to be 0.63 nM.
For `Cn1ccc2c(-c3ccc(C(=O)N[C@H]4CC[C@H](C(C)(C)O)CC4)cc3)nccc21` [Example 4, N-[trans-4-(2-hydroxypropan-2-yl)cyclohexyl]-4-(1-methyl-1H-pyrrolo[3,2-c]pyridin-4-yl)benzamide] the value was 7.4 nM; for `O=C(NC1CCCCC1)c1ccc(-c2nccc3[nH]ccc23)cc1` [Example 5, N-cyclohexyl-4-(1H-pyrrolo[3,2-c]pyridin-4-yl)benzamide], 1.6 nM.
For `CCCCCCNC(=O)c1ccc(-c2nccc3[nH]ccc23)cc1` [Example 6, N-hexyl-4-(1H-pyrrolo[3,2-c]pyridin-4-yl)benzamide] the value was 1.8 nM.
For `CCCCNC(=O)c1ccc(-c2nccc3[nH]ccc23)cc1` [Example 7, N-butyl-4-(1H-pyrrolo[3,2-c]pyridin-4-yl)benzamide] the value was 1.4 nM; for `O=C(NCc1ccccc1)c1ccc(-c2nccc3[nH]ccc23)cc1` [Example 8, N-benzyl-4-(1H-pyrrolo[3,2-c]pyridin-4-yl)benzamide], 1 nM; for `O=C(NCc1ccccn1)c1ccc(-c2nccc3[nH]ccc23)cc1` [Example 9], 1.5 nM.
As to `O=C(NCc1cccnc1)c1ccc(-c2nccc3[nH]ccc23)cc1` [Example 10, N-(pyridin-3-ylmethyl)-4-(1H-pyrrolo[3,2-c]pyridin-4-yl)benzamide], the half-maximal inhibitory concentration (IC50) is 1.7 nM.
With `O=C(NCc1ccncc1)c1ccc(-c2nccc3[nH]ccc23)cc1` [Example 11, N-(pyridin-4-ylmethyl)-4-(1H-pyrrolo[3,2-c]pyridin-4-yl)benzamide] the figure was 1.7 nM.
For `O=C(NC1CCCC1)c1ccc(-c2nccc3[nH]ccc23)cc1` [Example 12, N-cyclopenthyl-4-(1H-pyrrolo[3,2-c]pyridin-4-yl)benzamide] the value was 1.1 nM; for `O=C(NC1CCC1)c1ccc(-c2nccc3[nH]ccc23)cc1` [Example 13, N-cyclobutyl-4-(1H-pyrrolo[3,2-c]pyridin-4-yl)benzamide], 0.58 nM; for `O=C(NC1CC1)c1ccc(-c2nccc3[nH]ccc23)cc1` [Example 14, N-cyclopropyl-4-(1H-pyrrolo [3,2-c]pyridin-4-yl)benzamide], 1.4 nM.
With `CC(C)NC(=O)c1ccc(-c2nccc3[nH]ccc23)cc1` [Example 15, N-isopropyl-4-(1H-pyrrolo[3,2-c]pyridin-4-yl)benzamide] the figure was 0.99 nM; with `O=C(Nc1ccccc1)c1ccc(-c2nccc3[nH]ccc23)cc1` [Example 16, N-phenyl-4-(1H-pyrrolo[3,2-c]pyridin-4-yl)benzamide], 1.1 nM; with `O=C(NCCCCCCO)c1ccc(-c2nccc3[nH]ccc23)cc1` [Example 17, N-(6-hydroxyhexyl)-4-(1H-pyrrolo[3,2-c]pyridin-4-yl)benzamide], 0.85 nM.
With `O=C(NCC1CC1)c1ccc(-c2nccc3[nH]ccc23)cc1` [Example 18, N-(cyclopropyl-methyl)-4-(1H-pyrrolo[3,2-c]pyridin-4-yl)benzamide], the IC50 worked out at 1 nM.
With `O=C(NCC1CCCCC1)c1ccc(-c2nccc3[nH]ccc23)cc1` [Example 19, N-(cyclohexyl-methyl)-4-(1H-pyrrolo[3,2-c]pyridin-4-yl)benzamide] the figure was 1 nM; with `O=C(NCC1CCCO1)c1ccc(-c2nccc3[nH]ccc23)cc1` (centres unmarked) [Example 20, 4-(1H-pyrrolo[3,2-c]pyridin-4-yl)-N-[(tetrahydrofuran-2-yl)methyl] benzamide], 0.83 nM; with `O=C(NCC1CCOC1)c1ccc(-c2nccc3[nH]ccc23)cc1` (centres unmarked) [Example 21, 4-(1H-pyrrolo[3,2-c]pyridin-4-yl)-N-[(tetrahydrofuran-3-yl)methyl] benzamide], 0.82 nM.
For `O=C(NCC1CCOCC1)c1ccc(-c2nccc3[nH]ccc23)cc1` [Example 22, 4-(1H-pyrrolo[3,2-c]pyridin-4-yl)-N-[(tetrahydro-2H-pyran-4-yl)methyl] benzamide] the value was 0.85 nM; for `COCCNC(=O)c1ccc(-c2nccc3[nH]ccc23)cc1` [Example 23, N-(2-methoxyethyl)-4-(1H-pyrrolo[3,2-c]pyridin-4-yl)benzamide], 0.79 nM.
As to `COCCCNC(=O)c1ccc(-c2nccc3[nH]ccc23)cc1` [Example 24, N-(3-methoxypropyl)-4-(1H-pyrrolo[3,2-c]pyridin-4-yl)benzamide], the half-inhibitory concentration (IC50) was 0.56 nM.
